Data as given in ChEMBL document CHEMBL3430912, “GSK Tres Cantos Anti-Kinetoplastid Screening (TCAKS) Data”.

How the values were obtained:
[1] = tested on: Trypanosoma cruzi; experiment: GSK_TCAKS: pIC50 Trypanosoma cruzi viability assay using beta-GAL activity. This assay was run at single shot at 5uM compound concentration per well. The biological reagents consisted of NIH-3T3 host cells and trypomastigotes parasitic cells; both cell types were set to a 3.3 * 10^5 cells/mL dilution in assay DMEM by means of a CASY cell counter device using a 60um capillary. 6 uL of the mixture were dispensed per well (about 1 * 10^3 host-cells and 1 * 10^3 parasites) with a Multidrop Combi dispenser. […] In all wells, the percentage of DMSO never exceeded 0.5%. Plates incubated for four days at 37C, 5% CO2. The substrate used for the assay fluorescence intensity (FLINT) readout was resorufin-beta-D-galactopiranoside (Sigma-Aldrich) at 5uM per well. It was diluted in PBS supplemented with the soft detergent Igepal (Fluka).; format: functional, organism-based, Mus musculus; details: Tulahuen, NIH3T3
[2] = tested on: Trypanosoma cruzi; experiment: (§1) GSK_TCAKS: pIC50 Trypanosoma cruzi Imaging: Infected Cells. […] Cells were then washed once with PBS before infection. T. cruzi trypomastigotes, collected at days 5 to 8 after infection from LLC-MK2 parasite infected cultures, were allowed to swim out for 4h at 37C from a centrifuged pellet (2,500 rpm/10 min/room temperature). Trypomastigotes were then collected and counted in a CASY Cell Counter. Trypomastigotes, in supplemented DMEM, were added to H9c2 cultures in a multiplicity of infection of 1 and incubated for 18 h. Cells were washed once with PBS before incubation of the infected H9c2 monolayer with trypsin (Life-Technologies) to detach cells from the flask. Cells were counted in a CASY Cell Counter using a 150 um capillary and their density set at 5 * 10^4 cells per mL in supplemented assay DMEM. Infected H9c2 were dispensed into 384-well poly-lysine coated assay plates at 50uL per well using a Multidrop Combi dispenser. After seeding them, the plates were incubated at 37C, 5% CO2 for 72h. Cultures were then fixed and stained by addition of 50 uL of a solution containing 8% formaldehyde and 4 uM DRAQ5 DNA dye (BioStatus, UK) per well. […] Five images were collected per well for reliable statistical analysis. Automated image analysis was performed with a script developed on Acapella High Content Imaging and Analysis Software (PerkinElmer). Output: percentage of infected cells per well as a second infection marker.; format: functional, organism-based, Rattus norvegicus; details: H9c2, 4 h
[3] = tested on: Trypanosoma cruzi; experiment: GSK_TCAKS: pIC50 Trypanosoma cruzi Imaging: Amastigotes/Cell. […] Cells were then washed once with PBS before infection. T. cruzi trypomastigotes, collected at days 5 to 8 after infection from LLC-MK2 parasite infected cultures, were allowed to swim out for 4h at 37C from a centrifuged pellet (2,500 rpm/10 min/room temperature). Trypomastigotes were then collected and counted in a CASY Cell Counter. Trypomastigotes, in supplemented DMEM, were added to H9c2 cultures in a multiplicity of infection of 1 and incubated for 18 h. Cells were washed once with PBS before incubation of the infected H9c2 monolayer with trypsin (Life-Technologies) to detach cells from the flask. Cells were counted in a CASY Cell Counter using a 150 um capillary and their density set at 5 * 10^4 cells per mL in supplemented assay DMEM. Infected H9c2 were dispensed into 384-well poly-lysine coated assay plates at 50uL per well using a Multidrop Combi dispenser. After seeding them, the plates were incubated at 37C, 5% CO2 for 72h. Cultures were then fixed and stained by addition of 50 uL of a solution containing 8% formaldehyde and 4 uM DRAQ5 DNA dye (BioStatus, UK) per well. […] Five images were collected per well for reliable statistical analysis. Automated image analysis was performed with a script developed on Acapella High Content Imaging and Analysis Software (PerkinElmer). Output: number of amastigotes per cell as infection level measurement.; format: functional, organism-based, Rattus norvegicus; details: H9c2, 4 h
[4] = tested on: Trypanosoma cruzi; experiment: as §1, with “H2C9” for “Trypanosoma cruzi”, “H9c2 Host Cardiomyocytes.” for “Infected Cells.”, “Number” for “percentage”, “H9c2 Host Cardiomyocytes nuclei to determine drug-related cytotoxicity.” for “infected cells per well as a second infection marker.”; format: functional, organism-based, Rattus norvegicus; details: H9c2, 4 h
[5] = tested on: Leishmania donovani; experiment: GSK_TCAKS: pIC50 Leishmania donovani viability assay using fluorescence intensity. Assay plates (1536-well) were prepared by adding 30nL per well of compound. For single shot assay, the final compound concentration was 5uM. […] Briefly, eGFP LdBOB axenic amastigotes were harvested, fixed and counted in a CASY cell counter (Roche-Applied Science). A final concentration of 1.5 * 10^5 cells per well were prepared in amastigote media containing 500 U/mL penicillin/streptomycin (Invitrogen) and 6uL was dispensed to each experimental well using a Multidrop Combi dispenser (Thermo Scientific). 6uL of assay media was dispensed to control columns used as reference for 100% compound response. Following incubation for 72 h at 37C, 5% CO2, 2 uL of resazurin was added to each well at a final concentration of 0.5 mM in phosphate buffered saline (PBS) with IGEPAL (Sigma-Aldrich), 0.05% (v/v).; format: functional, organism-based
[6] = tested on: Leishmania donovani; experiment: GSK_TCAKS: pIC50 Leishmania donovani Imaging: Infected Macrophages. Assay plates (384-well) were prepared by adding 250nL of compound to each well. For single shot assay, the final compound concentration was 5 uM. […] Automated image analysis was performed with a script developed on Acapella High Content Imaging and Analysis Software (PerkinElmer). Output: Percent of infected macrophage cells were reported for each well.; format: functional, organism-based, Homo sapiens; details: THP-1
[7] = tested on: Leishmania donovani; experiment: GSK_TCAKS: pIC50 Leishmania donovani Imaging: Amastigotes/Macrophages. Assay plates (384-well) were prepared by adding 250nL of compound to each well. For single shot assay, the final compound concentration was 5 uM. […] Automated image analysis was performed with a script developed on Acapella High Content Imaging and Analysis Software (PerkinElmer). Output: Average number of amastigotes per macrophage cell were reported for each well.; format: functional, organism-based, Homo sapiens; details: THP-1
[8] = tested on: Leishmania donovani; experiment: GSK_TCAKS: pIC50 Leishmania donovani Imaging: THP-1 Host Macrophages. Assay plates (384-well) were prepared by adding 250nL of compound to each well. For single shot assay, the final compound concentration was 5 uM. […] Automated image analysis was performed with a script developed on Acapella High Content Imaging and Analysis Software (PerkinElmer). Output: THP-1 cell count were reported for each well.; format: functional, organism-based, Homo sapiens
[9] = tested on: Trypanosoma brucei brucei; experiment: GSK_TCAKS: pIC50 Trypanosoma brucei viability assay using fluorescence intensity. Assay plates (1536-well) were prepared by dispensing 25nL of compound solution per well using an Echo acoustic dispenser (Labcyte).; format: functional, organism-based; details: Lister 427, 2 h
[10] = tested on: Trypanosoma brucei brucei; experiment: GSK_TCAKS: pIC50 Trypanosoma brucei viability assay using luminiscence. Assay plates (1536-well) were prepared. T. brucei cultures were harvested and counted in a CASY cell counter. A parasite suspension was prepared at a final concentration of 5 * 10^4 cells/mL in complete HMI9 medium and 6uL was dispensed to all wells containing compounds using a Multidrop Combi dispenser. 6uL of HMI9 media with 0.4% DMSO were dispensed to control columns. Plates were incubated for 24 h at 37C, 5% CO2 then tempered for 10 min at room temperature. ATP content was quantified by adding 4 uL of CellTiter-Glo Reagent (Promega) according to the manufacturer's instructions. Luminescence was measured using a ViewLux.; format: functional, organism-based; details: Lister 427, CASY
[11] = GSK_TCAKS: pIC50 HepG2 human cell line viability assay using luminiscence. […] Seeding density was checked to ensure that new mono-layers were not more than 50% confluent at the time of harvesting. Cell suspension was added to 500 mL of the same medium at a final density of 1.2 * 10^5 cells/mL. This cell suspension was dispensed (25 uL, 3000 cells per well) into 384-well clear-bottom plates using a Multidrop Combi dispenser. Prior to addition of the cell suspension, the screening compounds (250 nL) were pre-dispensed into the plates with an Echo liquid handler. Plates were incubated for 48 h at 37C, 5% CO2. After incubation, plates equilibrated at room temperature for 30 min before proceeding to develop the luminescent signal. The signal developer, CellTiter-Glo Reagent, was allowed to equilibrate at room temperature for 30 min and added to the plates (25uL per well) using a Multidrop Combi dispenser. Plates were left for 10 min at room temperature for stabilization and then read using a ViewLux.; format: toxicity, cell-based
[12] = molecular target: Sterol 14-alpha demethylase (Trypanosoma cruzi (strain CL Brener), UniProt Q7Z1V1); experiment: GSK_TCAKS: pIC50 CYP51 from Trypanosoma cruzi.; format: functional
Chain of Sterol 14-alpha demethylase (Q7Z1V1 whole entry): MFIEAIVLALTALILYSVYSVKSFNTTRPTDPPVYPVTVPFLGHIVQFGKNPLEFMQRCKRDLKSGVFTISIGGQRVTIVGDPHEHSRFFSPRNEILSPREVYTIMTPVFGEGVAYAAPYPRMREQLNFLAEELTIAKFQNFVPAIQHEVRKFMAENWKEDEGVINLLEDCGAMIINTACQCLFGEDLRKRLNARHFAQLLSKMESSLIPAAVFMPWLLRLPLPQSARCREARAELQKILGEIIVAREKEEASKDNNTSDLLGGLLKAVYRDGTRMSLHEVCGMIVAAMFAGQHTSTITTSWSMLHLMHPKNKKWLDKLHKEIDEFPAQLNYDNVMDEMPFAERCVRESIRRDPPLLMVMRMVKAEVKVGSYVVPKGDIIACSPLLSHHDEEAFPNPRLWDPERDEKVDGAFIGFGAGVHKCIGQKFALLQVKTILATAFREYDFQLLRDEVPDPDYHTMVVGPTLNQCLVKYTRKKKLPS

Row | SMILES | IC50 [1] [µM] | IC50 [2] [µM] | IC50 [3] [µM] | IC50 [4] [µM] | IC50 [5] [µM] | IC50 [6] [µM] | IC50 [7] [µM] | IC50 [8] [µM] | IC50 [9] [µM] | IC50 [10] [µM] | IC50 at 48 h [11] [µM] | IC50 [12] [µM]
1 | Cc1ccc2onc(Nc3ccnc(Nc4cccc(S(C)(=O)=O)c4)n3)c2c1 | 3.98 | 0.631 | 0.398 | 5.01 | 5.01 | 2 | 1 | 20 | 6.31 | 7.94 | 50.1 | 39.8
2 | Cn1nc(-c2ccc(NC(=O)Cc3ccccc3Cl)cc2)c2c(N)ncnc21 | 2 | 1.26 | 1 | 7.94 | > 50.1 | > 50.1 | > 50.1 | > 50.1 | 0.398 | 0.251 | > 100 | 63.1
3 | Cc1cc(Nc2ccc(C#N)c(Cl)c2C)[nH]n1 | 25.1 | > 50.1 | 20 | > 50.1 | 50.1 | > 50.1 | > 50.1 | 20 | 0.00794 | 0.251 | > 100 | 39.8
4 | Cc1c(Nc2cc(C3CC3)n[nH]2)ccc(C#N)c1Cl | 2.51 | 25.1 | 15.8 | 10 | 20 | 39.8 | 25.1 | 25.1 | 0.398 | 0.631 | 39.8 | 20
5 | CCOC(=O)c1cn[nH]c1S(=O)(=O)N1CCC1c1ccccc1 (centres undefined) | > 50.1 | > 50.1 | > 50.1 | > 50.1 | > 50.1 | > 50.1 | > 50.1 | > 50.1 | 0.631 | 0.794 | > 100 | 50.1
6 | COc1cc(-c2noc(CC#N)n2)ccc1OC(F)F | 39.8 | 39.8 | 25.1 | 31.6 | > 50.1 | > 50.1 | > 50.1 | 50.1 | 0.631 | 0.631 | > 100 | 100
7 | CS(=O)(=O)c1ccc(Nc2nccc(Nc3n[nH]c4ccc(F)cc34)n2)c(F)c1 | 7.94 | 31.6 | 3.98 | 15.8 | 12.6 | 12.6 | 10 | 15.8 | 0.501 | 0.794 | 79.4 | 39.8
8 | Cc1nc2c(-c3ncn[nH]3)cc(NC(=O)Cc3ccccc3)cn2c1C | 1 | 1 | 0.794 | 6.31 | 0.794 | 0.398 | 0.316 | 7.94 | 3.16 | 10 | 15.8 | 10
9 | Cc1[nH]nc(Nc2ccnc3[nH]ccc23)c1C | 3.98 | > 50.1 | > 50.1 | > 50.1 | > 50.1 | > 50.1 | > 50.1 | > 50.1 | 0.126 | 0.251 | > 100 | 79.4
10 | COc1cc(Nc2nccc(Nc3onc(C)c3C)n2)cc(S(=O)(=O)C2CCOCC2)c1 | 6.31 | 25.1 | 12.6 | 10 | 39.8 | > 50.1 | 5.01 | 39.8 | 0.501 | 0.501 | 31.6 | 7.94
11 | O=C(NCCc1ccn(-c2ccccc2)n1)C1CCCCC1 | 1.26 | 1 | 1 | > 50.1 | > 50.1 | > 50.1 | > 50.1 | > 50.1 | 0.251 | 0.316 | > 100 | 100
12 | CC(C)(C)C(=O)Nc1cc(C2CC2)nn1-c1nc2c(c(=O)[nH]1)CCCC2 | 0.501 | 0.501 | 0.126 | 2 | 0.0794 | 5.01 | 2 | 7.94 | 0.158 | 0.2 | > 100 | > 100
